Measured values taken from patent publication US6346535B1, “Fungicidal mixtures” (American Cyanamid Company, priority 1999, dated 2002).

Columns and labels:
Assay type in all cases: in vivo
[1] = test system: Blumeria graminis on wheat; assay: Greenhouse trial, 4 day curative, Blumeria graminis on wheat; conditions: compound alone
Method: The trials are carried out under greenhouse (Examples 1 to 18) or field conditions (Example 19) in residual or curative applications. The fungicides are applied in single treatments, or in a combination comprising a benzophenone of formula I and a compound selected from (A) through (E) as defined above. The compounds are applied in form of an aqueous spray mix obtained from a concentrated formulation or the technical material. […] Seed is planted in 6 cm diameter plastic pots and maintained in the greenhouse. […] When the primary leaf is fully expanded (in the case of cereals) or several leaves are present (in the case of dicots), formulated test compounds are sprayed with a three nozzle overhead fungicide sprayer to near run-off. Alternatively, a single nozzle overhead track sprayer is used for application of the compounds to cereals at a rate of 200 liters/ha (l/ha). Plants are then allowed to air-dry. […] Inoculation precedes treatment in the case of curative evaluations and follows treatment in case of residual evaluations. For inoculation of powdery mildew disease, plants are set up on greenhouse benches with bottom watering mats and inoculated by dusting them with conidia from infected plants. Between inoculation and treatment for curative evaluations and between treatment and inoculation for residual evaluations, plants are maintained in the greenhouse with bottom watering. For inoculation of non-powdery mildew diseases, an aqueous spore suspension of the pathogen is applied to the plant and the plants are kept 1-2 days in a moist infection chamber before being returned to the greenhouse where they are maintained by bottom watering. […] Disease on the foliage as percent leaf area with disease symptoms/signs is evaluated about 7 days after inoculation. In the case of wheat, the tips and bases of the leaves are excluded from the evaluation. [formula] […] Compounds are dissolved in acetone prior to addition of the water; the Tween 20 can be added through either the acetone or the water. Dilutions are made using the solvent/surfactant system. Formulated compounds are prepared using deionized water. Assessments of the diseases took place at the indicated day after the application of the compounds. Per cent infected leaf area infected was evaluated. […] Synergy of a fungicide mixture was determined by comparing the actual (observed) fungicidal activity of the mixture to the expected fungicidal activity of the mixture as calculated using the COLBY formula given hereinabove.

[2] = test system: Uncinula necator on vines; assay: Greenhouse trial, 1 day residual, Uncinula necator on vines; conditions: Table XVIII, compound alone
Method: (§1) The trials are carried out under greenhouse (Examples 1 to 18) or field conditions (Example 19) in residual or curative applications. The fungicides are applied in single treatments, or in a combination comprising a benzophenone of formula I and a compound selected from (A) through (E) as defined above. The compounds are applied in form of an aqueous spray mix obtained from a concentrated formulation or the technical material.
(§2) 1. Seed is planted in 6 cm diameter plastic pots and maintained in the greenhouse.
(§3) 2. When the primary leaf is fully expanded (in the case of cereals) or several leaves are present (in the case of dicots), formulated test compounds are sprayed with a three nozzle overhead fungicide sprayer to near run-off. Alternatively, a single nozzle overhead track sprayer is used for application of the compounds to cereals at a rate of 200 liters/ha (l/ha). Plants are then allowed to air-dry.
(§4) 3. Inoculation precedes treatment in the case of curative evaluations and follows treatment in case of residual evaluations. For inoculation of powdery mildew disease, plants are set up on greenhouse benches with bottom watering mats and inoculated by dusting them with conidia from infected plants. Between inoculation and treatment for curative evaluations and between treatment and inoculation for residual evaluations, plants are maintained in the greenhouse with bottom watering. For inoculation of non-powdery mildew diseases, an aqueous spore suspension of the pathogen is applied to the plant and the plants are kept 1-2 days in a moist infection chamber before being returned to the greenhouse where they are maintained by bottom watering.
(§5) 4. Disease on the foliage as percent leaf area with disease symptoms/signs is evaluated about 7 days after inoculation. In the case of wheat, the tips and bases of the leaves are excluded from the evaluation. [formula]
(§6) 1. Technical compounds are formulated in a solvent/surfactant system consisting of 5% acetone and 0.05% Tween 20 in deionized water. Compounds are dissolved in acetone prior to addition of the water; the Tween 20 can be added through either the acetone or the water. Dilutions are made using the solvent/surfactant system. Formulated compounds are prepared using deionized water.
(§7) Assessments of the diseases took place at the indicated day after the application of the compounds. Per cent infected leaf area infected was evaluated. The efficacy of the compounds/compounds mixtures to control the diseases was calculated by using the formula given above under item 4: […]
(§8) Synergy of a fungicide mixture was determined by comparing the actual (observed) fungicidal activity of the mixture to the expected fungicidal activity of the mixture as calculated using the COLBY formula given hereinabove.
Fungicidal Efficacy of the Mixture of BP-4+AP-4 (1 Day Residual) Against Uncinula necator on Vines
The tank mixes were obtained from technical material of BP-4 and AP-4. The active ingredients, the type of formulations, the observed and expected efficacies with different rates are given in Table XVIII: […]

[3] = test system: Blumeria graminis f. sp. tritici on wheat; assay: Greenhouse trial, 2 day curative, Blumeria graminis f. sp. tritici on wheat; conditions: Table XVII, compound alone
Method: as §1, §2, §3, §4, §5, §6, §7, §8
Fungicidal Efficacy of the Mixture of Different Benzophenones+Metconazole (2 Day Curative) Against Blumeria graminis f. sp. tritici on Wheat
The tank mixes were obtained from technical material of the benzophenones BP-2 and BP-4 and metconazole.

[4] = test system: Blumeria graminis on wheat; assay: Greenhouse trial, 3 day protective, Blumeria graminis on wheat; conditions: compound alone
Text: (§9) The fungicides are applied in single treatments, or in a combination comprising a benzophenone of formula I and a compound selected from (A) through (E) as defined above. The compounds are applied in form of an aqueous spray mix obtained from a concentrated formulation or the technical material.
as §2, §3, §4, §5, §6, §7, §8
Fungicidal Efficacy of the Mixture of BP-5+Triforine (3 Day Protective) Against Blumeria graminis on Wheat
Fungicidal Efficacy of the Mixture of BP-1+Triadimefon (3 Day Protective) Against Blumeria graminis on Wheat

[5] = test system: Erysiphe cichoracearum on cucumbers; assay: Greenhouse trial, 4 day residual, Erysiphe cichoracearum on cucumbers
Text: as §9, §2, §3, §4, §5, §6, §7, §8

[6] = test system: Puccinia recondita on wheat; assay: Greenhouse trial, 4 day residual, Puccinia recondita on wheat
Text: as §9, §2, §3, §4, §5, §6, §7, §8
Fungicidal Efficacy of the Mixture of BP-4+Other Fungicides (4 Day Residual) Against Puccinia recondita on Wheat
Fungicidal Efficacy of the Mixture of BP-4+Myclobutanil (4 Day Residual) Against Puccinia recondita on Wheat

[7] = test system: Pyrenophora teres on barley; assay: Greenhouse trial, 4 day residual, Pyrenophora teres on barley; conditions: Table XVI (Example 16), 4 day residual
Text: as §9, §2, §3, §4, §5, §6, §7, §8
Fungicidal Efficacy of the Mixture of BP-4+Other Fungicides (4 Day Residual) Against Pyrenophora teres on Barley

[8] = test system: Leptosphaeria nodorum on wheat; assay: Greenhouse trial, 4 day residual, Leptosphaeria nodorum on wheat; conditions: Table VIII, compound alone
Text: as §9, §2, §3, §4, §5, §6, §7, §8
Fungicidal Efficacy of the Mixture of BP-4+Other Fungicides (4 Day Residual) Against Leptosphaeria nodorum on Wheat

[9] = Table XIV (Example 14), 4 day residual, dose rate 10 ppm
[10] = Table XV (Example 15), 4 day residual, dose rate 50 ppm

Fc1cccc(Cl)c1-c1c(Cl)nc2ncnn2c1NC1CC1 [AP-1, 5-chloro-6-(2-chloro-6-fluorophenyl)-7-(cyclopropylamino)-[1,2,4]triazolo[1,5-a]pyrimidine]
Observed Efficacy ([1]; Table I, dose rate 25 ppm): 0%
Observed Efficacy ([1]; Table I, dose rate 125 ppm): 0%

CC1CCN(c2c(-c3c(F)cccc3Cl)c(Cl)nc3ncnn23)CC1 [AP-2, 5-chloro-6-(2-chloro-6-fluorophenyl)-7-(4-methylpiperid-1-yl)-[1,2,4]triazolo[1,5-a]pyrimidine]
Observed Efficacy ([1]; Table II, dose rate 25 ppm): 0%
Observed Efficacy ([1]; Table II, dose rate 125 ppm): 8%

CC(Nc1c(-c2c(F)cc(F)cc2F)c(Cl)nc2ncnn12)C(F)(F)F (stereo not drawn) [AP-4, 5-chloro-6-(2,4,6-trifluorophenyl)-7-[2-(1,1,1-trifluoro)propylamino]-[1,2,4]triazolo[1,5-a]pyrimidine]
Observed Efficacy ([2]; dose rate 0.03 ppm): 13%
Observed Efficacy ([2]; dose rate 0.06 ppm): 7%
Observed Efficacy ([2]; dose rate 0.12 ppm): 32%
Observed Efficacy ([2]; dose rate 0.25 ppm): 50%
Observed Efficacy ([2]; dose rate 0.5 ppm): 76%
Observed Efficacy ([2]; dose rate 1 ppm): 76%

COc1cc(C)c(C(=O)c2c(Cl)cccc2Cl)c(OCc2ccccc2F)c1OC [BP-2, 2,6-dichloro-4′,5′-dimethoxy-6′-(2-fluorobenzyloxy)-2′-methylbenzophenone]
Observed Efficacy ([3]; dose rate 0.67 ppm): 4%
Observed Efficacy ([3]; dose rate 2 ppm): 13%
Observed Efficacy ([3]; dose rate 6 ppm): 18%
Observed Efficacy ([3]; dose rate 18 ppm): 25%
Observed Efficacy ([3]; dose rate 54 ppm): 67%

COc1cc(C)c(C(=O)c2c(Cl)cccc2Cl)c(OC)c1OC [BP-5, 2,6-dichloro-2′-methyl-4′,5′,6′-trimethoxybenzophenone]
Observed Efficacy ([4]; Table IV, dose rate 5 ppm): 12%
Observed Efficacy ([4]; Table IV, dose rate 25 ppm): 31%

CC(C)(C)C(=O)C(Oc1ccc(Cl)cc1)n1cncn1 (stereo not drawn) [triadimefon]
pest or weed control at 0.4 ppm ([5]; Golovinomyces cichoracearum, 96 h, Table XIV (Example 14), 4 day residual, dose rate 0.4 ppm, read-out: Observed Efficacy): 0%
pest or weed control at 2 ppm ([5]; Golovinomyces cichoracearum, 96 h, Table XIV (Example 14), 4 day residual, dose rate 2 ppm, read-out: Observed Efficacy): 6%
pest or weed control at 10 ppm ([5]; Golovinomyces cichoracearum, 96 h, Table XIV (Example 14), 4 day residual, dose rate 10 ppm, read-out: Observed Efficacy): 23%
pest or weed control at 50 ppm ([5]; Golovinomyces cichoracearum, 96 h, Table XIV (Example 14), 4 day residual, dose rate 50 ppm, read-out: Observed Efficacy): 47%
Observed Efficacy ([1]; Table III, dose rate 25 ppm): 12%
Observed Efficacy ([1]; Table III, dose rate 125 ppm): 30%
Observed Efficacy ([4]; Table V, dose rate 25 ppm): 24%

Dinocap
Observed Efficacy [5, 9]: 0
Observed Efficacy [6, 10]: 54
Observed Efficacy ([7]; dose rate 50 ppm): 22

Flusilazole [listing 1 of 2 here]
Observed Efficacy ([5]; Table XIV (Example 14), 4 day residual, dose rate 50 ppm): 38
Observed Efficacy [6, 10]: 100
Observed Efficacy ([7]; dose rate 50 ppm): 48

Flusilazole [listing 2 of 2 here]
Observed Efficacy ([5]; Table XIV (Example 14), 4 day residual, dose rate 0.4 ppm): 0
Observed Efficacy ([5]; Table XIV (Example 14), 4 day residual, dose rate 2 ppm): 0
Observed Efficacy [5, 9]: 19
Observed Efficacy ([6]; Table XV (Example 15), 4 day residual, dose rate 0.4 ppm): 5
Observed Efficacy ([6]; Table XV (Example 15), 4 day residual, dose rate 2 ppm): 28
Observed Efficacy ([7]; dose rate 2 ppm): 8
Observed Efficacy ([7]; dose rate 10 ppm): 26

triforine
Observed Efficacy ([5]; Table VI, compound alone, dose rate 4 ppm): 1%
Observed Efficacy ([5]; Table VI, compound alone, dose rate 16 ppm): 44%
Observed Efficacy ([5]; Table VI, compound alone, dose rate 64 ppm): 79%
Observed Efficacy ([5]; Table VI, compound alone, dose rate 256 ppm): 96%
Observed Efficacy ([6]; Table VII, compound alone, dose rate 4 ppm): 0%
Observed Efficacy ([6]; Table VII, compound alone, dose rate 16 ppm): 7%
Observed Efficacy ([6]; Table VII, compound alone, dose rate 64 ppm): 90%
Observed Efficacy ([6]; Table VII, compound alone, dose rate 256 ppm): 100%
Observed Efficacy ([4]; Table IV, dose rate 125 ppm): 12%
Observed Efficacy ([8]; dose rate 1 ppm): 0%
Observed Efficacy ([8]; dose rate 4 ppm): 4%
Observed Efficacy ([8]; dose rate 16 ppm): 31%
Observed Efficacy ([8]; dose rate 64 ppm): 51%
Observed Efficacy ([8]; dose rate 256 ppm): 85%
